Molecular target: T1, human B1R (Homo sapiens, UniProt P46663)
T1 construct: expressed in transfected cells; host or cells: CHO K1 cells (Chinese Hamster Ovary), stably transfected
T1 sequence (P46663 1-353): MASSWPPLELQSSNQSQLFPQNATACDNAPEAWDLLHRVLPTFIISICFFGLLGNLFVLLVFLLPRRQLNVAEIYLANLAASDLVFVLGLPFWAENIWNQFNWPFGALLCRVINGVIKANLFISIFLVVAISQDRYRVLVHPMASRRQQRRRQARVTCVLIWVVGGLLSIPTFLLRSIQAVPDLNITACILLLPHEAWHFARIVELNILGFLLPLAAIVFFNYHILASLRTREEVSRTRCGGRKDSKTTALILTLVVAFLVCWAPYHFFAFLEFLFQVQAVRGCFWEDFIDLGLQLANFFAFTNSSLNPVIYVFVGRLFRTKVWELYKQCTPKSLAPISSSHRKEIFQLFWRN
Assay: Functional assay at bradykinin receptor 1 (B1R): Ca2+ fluorescence (Fluo-4) in FLIPR/Novostar, antagonist mode
Type: cell-based
Conditions: test substance 10 µM, CHO K1 cells stably transfected with human B1R gene (hB1R-Zellen), agonist Lys-Des-Arg9-Bradykinin at EC80, % inhibition relative to maximal achievable inhibition; for inhibition at 10 µM: read-out: % Inhibierung (human B1R) bei 10 µM
Procedure: Die agonistische bzw. antagonistische Wirkung von Substanzen kann am Bradykinin Rezeptor 1 (B1R) der Spezies Mensch und Ratte mit ektopisch exprimierenden Zelllinien (CHO K1 Zellen) und mit Hilfe eines Ca^2+-sensitiven Farbstoffs (Fluo-4) im Fluorescent Imaging Plate Reader (FLIPR) quantifiziert werden. Die Angabe in % Aktivierung wird bezogen auf das Ca^2+-Signal nach Zugabe von Lys-Des-Arg^9-Bradykinin ([…]), bzw. Des-Arg^9-Bradykinin (100 nM). Antagonisten führen zu einer Unterdrückung des Ca^2+-Einstroms nach der Zugabe des Agonisten. Angegeben werden % Inhibition im Vergleich zu der maximal erreichbaren Inhibition.
Die agonistische bzw. antagonistische Wirkung von Substanzen kann am Bradykinin Rezeptor 1 (B1R) der Spezies Mensch und Ratte mit folgendem Assay bestimmt werden. Gemäß diesem Assay wird der intrazelluläre Ca^2+-Anstieg nach Gabe eines B1 R Agonisten mit Hilfe eines Ca^2+-sensitiven Farbstoffs (Typ Fluo-4, Molecular Probes Europe BV, Leiden NL) im Fluorescent Imaging Plate Reader (FLIPR, Molecular Devices, Sunnyvale, USA) und/oder im Novostar (BMG Labtech GmbH, Offenburg, DE) quantifiziert.
Es werden Chinese Hamster Ovary Zellen (CHO K1 Zellen) verwendet, die stabil mit dem humanen B1 R-Gen (hB1R-Zellen) bzw. dem B1 R-Gen der Ratte (rB1R-Zellen) transfiziert sind. Für funktionelle Untersuchungen werden diese Zellen auf schwarze 96-Loch-Platten mit klarem Boden (BD Biosciences, Heidelberg, DE oder Greiner, Frickenhausen, DE) in einer Dichte von 20.000 - 35.000 Zellen/Loch ausplattiert. Über Nacht werden die Zellen bei 37°C und 5 % CO2 in Kulturmedium (hB1 R-Zellen: Nutrient Mixture Ham's F12, Gibco Invitrogen GmbH, Karlsruhe, Deutschland oder DMEM, Sigma-Aldrich, Taufkirchen, Deutschland; rB1R-Zellen: D-MEM/F12, Gibco Invitrogen GmbH, Karlsruhe, DE) mit 10 Vol-% FBS (Fetal bovine serum, Gibco Invitrogen GmbH, Karlsruhe, DE oder PAN Biotech GmbH, Aidenbach, DE) belassen. Am folgenden Tag werden die Zellen mit 2,13 µM Fluo-4 (Molecular Probes Europe BV, Leiden, NL) in HBSS-Puffer (Hank's buffered saline solution, Gibco Invitrogen GmbH, Karlsruhe, DE) mit 2,5 mM Probenecid (Sigma-Aldrich, Taufkirchen, DE) und 10 mM HEPES (Sigma-Aldrich, Taufkirchen, DE) für 60 min bei 37°C beladen. Anschließend werden die Platten 2 x mit HBSS-Puffer gewaschen und mit HBSS-Puffer versetzt, der zusätzlich 0,1 % BSA (bovines Serumalbumin; Sigma-Aldrich, Taufkirchen, Deutschland), 5,6 mM Glucose und 0,05 % Gelatine (Merck KGaA, Darmstadt, DE) enthält. Nach einer weiteren Inkubation von 20 Minuten bei RT werden die Platten zur Ca^2+-Messung im FLIPR oder Novostar eingesetzt. Alternativ wird mit Puffer A (15 mM HEPES, 80 mM NaCl, 5 mM KCI, 1,2 mM CaCl2, 0,7 mM MgSO4, 2g/L Glucose, 2,5 mM Probenecid) gewaschen und mit Puffer A versetzt mit 2,5 µM Fluo-4 und 0,025 % Pluronic F127 (Sigma-Aldrich, Taufkirchen, DE) beladen. Danach werden die Zellen 2 x mit Puffer A gewaschen und für 30 Minuten mit Puffer A, der zusätzlich 0,05 % BSA und 0,05 % Gelatine enthält bei RT inkubiert und danach zur Ca^2+-Messung im FLIPR oder Novostar eingesetzt.
Die Ca^2+-abhängige Fluoreszenz wird dabei vor und nach Zugabe von Substanzen gemessen (λex = 488 nm, λem = 540 nm). Die Quantifizierung erfolgt durch die Messung der höchsten Fluoreszenzintensität (FC, Fluorescence Counts) über die Zeit.
Das FLIPR-Protokoll besteht aus 2 Substanzzugaben, die im FLIPR pipettiert werden. Bei Messungen im Novostar wird nur die zweite Substanzzugabe im Gerät pipettiert. Beide Geräte messen die Fluoreszenzintensität über die Zeit. Zunächst werden Testsubstanzen (10 µM) auf die Zellen pipettiert und der intrazelluläre Ca^2+-Anstieg mit der Kontrolle (hB1 R: Lys-Des-Arg^9-Bradykinin >= 50 nM; rB1 R: Des-Arg^9-Bradykinin >= 1 µM) verglichen. Daraus ergibt sich die Angabe in % Aktivierung bezogen auf das Ca^2+-Signal nach Zugabe von Lys-Des-Arg^9-Bradykinin (>= 50 nM), bzw. Des-Arg^9-Bradykinin (>=1 µM). Nach 6-20 Minuten Inkubation werden Lys-Des-Arg^9-Bradykinin (hB1 R) bzw. […]

| Compound | % Inhibierung (human B1R) bei 10 µM [%] | inhibition at 10 µM [%] |
| --- | --- | --- |
| N-[4-(Cyclopropylamino)-2,2-dimethyl-cyclohexyl]-2-[3-[[(2,3-dichlor-phenyl)sulfonyl]-methyl]-[1,2,4]oxadiazol-5-yl]-acetamid [CC-123] | 99 | – |
| COc1cc(C)c(S(=O)(=O)Cc2noc(C(=O)N(C)C3CCN(c4ccnc(N(C)C)n4)CC3)n2)c(C)c1 [SC-68, N-[1-(2-Dimethylamino-pyrimidin-4-yl)-piperidin-4-yl]-3-[[(4-methoxy-2,6-dimethyl-phenyl)sulfonyl]-methyl]-N-methyl-[1,2,4]oxadiazol-5-carbonsäure amid] | – | 100 |
| COc1cc(C)c(S(=O)(=O)Cc2c(C)nn(CC(=O)NC3CCC(c4ccncc4)CC3(C)C)c2C)c(C)c1 (stereo not shown) [CC-172, N-(2,2-Dimethyl-4-pyridin-4-yl-cyclohexyl)-2-[4-[[(4-methoxy-2,6-dimethyl-phenyl)sulfonyl]-methyl]-3,5-dimethyl-1 H-pyrazol-1-yl]-acetamid] | – | 100 |
| COc1cc(C)c(S(=O)(=O)Cc2c(C)nn(CC(=O)N(C3CCC(N(C)C)CC3)C3CC3)c2C)c(C)c1 (stereo not shown) [CC-118, N-Cyclopropyl-N-(4-dimethylamino-cyclohexyl)-2-[4-[[(4-methoxy-2,6-dimethyl-phenyl)sulfonyl]-methyl]-3,5-dimethyl-1H-pyrazol-1-yl]-acetamid] | – | 93 |
| COc1cc(C)c(S(=O)(=O)Cc2noc(C(=O)NC3CCN(c4ccc(C(F)(F)F)cn4)C3)n2)c(C)c1 (stereo not shown) [SC-06, 3-[[(4-Methoxy-2,6-dimethyl-phenyl)sulfonyl]-methyl]-N-[1-[5-(trifluormethyl)-pyridin-2-yl]-pyrrolidin-3-yl]-[1,2,4]oxadiazol-5-carbonsäure amid] | – | 94 |
| COc1cc(C)c(S(=O)(=O)Cc2nnc(CC(=O)NC3CCC(N4CCCC4)CC3)o2)c(C)c1 (stereo not shown) [CC-40] | – | 100 |
| COc1cc(C)c(S(=O)(=O)Cc2noc(C(=O)NC3CCC(Cc4ccncc4)CC3)n2)c(C)c1 (stereo not shown) [SC-19, 3-[[(4-Methoxy-2,6-dimethyl-phenyl)sulfonyl]-methyl]-N-[4-(pyridin-4-yl-methyl)-cyclohexyl]-[1,2,4]oxadiazol-5-carbonsäure amid] | – | 99 |
| COc1cc(C)c(S(=O)(=O)Cc2noc(C(=O)N3CCN(c4ccncc4)CC3)n2)c(C)c1 [CC-136, [3-[[(4-Methoxy-2,6-dimethyl-phenyl)sulfonyl]-methyl]-[1,2,4]oxadiazol-5-yl]-(4-pyridin-4-yl-piperazin-1-yl)-methanon] | – | 100 |
| COc1cc(C)c(S(=O)(=O)Cc2noc(C(=O)NC3CCC(c4ccncc4)CC3)n2)c(C)c1 (stereo not shown) [SC-18, 3-[[(4-Methoxy-2,6-dimethyl-phenyl)sulfonyl]-methyl]-N-(4-pyridin-4-yl-cyclohexyl)-[1,2,4]oxadiazol-5-carbonsäure amid] | – | 97 |
| COc1cc(C)c(S(=O)(=O)Cc2noc(CC(=O)NC3CCC(c4ccncc4)CC3(C)C)n2)c(C)c1 (stereo not shown) [SC-32, N-(2,2-Dimethyl-4-pyridin-4-yl-cyclohexyl)-2-[3-[[(4-methoxy-2,6-dimethyl-phenyl)sulfonyl]-methyl]-[1,2,4]oxadiazol-5-yl]-acetamid] | – | 98 |
| Cc1cccc(Cl)c1S(=O)(=O)Cc1noc(CC(=O)NC2CCC(N3CCCC3)CC2(C)C)n1 (stereo not shown) [CC-91, 2-[3-[[(2-Chlor-6-methyl-phenyl)sulfonyl]-methyl]-[1,2,4]oxadiazol-5-yl]-N-(2,2-dimethyl-4-pyrrolidin-1-yl-cyclohexyl)-acetamid] | – | 97 |

Further lines, results first:

| % Inhibierung (human B1R) bei 10 µM [%] | inhibition at 10 µM [%] | Compound |
| --- | --- | --- |
| – | 98 | COc1cc(C)c(S(=O)(=O)Cc2nnc(C(=O)NC3CCNCC3(C)C)o2)c(C)c1 (stereo not shown) [SC-87, N-(3,3-Dimethyl-piperidin-4-yl)-5-[[(4-methoxy-2,6-dimethyl-phenyl)sulfonyl]-methyl]-[1,3,4]oxadiazol-2-carbonsäure amid] |
| – | 100 | CC1(C)CC(c2ccncc2)CCC1NC(=O)Cc1nc(CS(=O)(=O)c2cccc(Cl)c2Cl)no1 (stereo not shown) [CC-109, 2-[3-[[(2,3-Dichlor-phenyl)sulfonyl]-methyl]-[1,2,4]oxadiazol-5-yl]-N-(2,2-dimethyl-4-pyridin-4-yl-cyclohexyl)-acetamid] |
| – | 100 | Cc1cc(S(=O)(=O)Cc2noc(C(=O)N3CCN(c4ccncc4)CC3)n2)c(C)cc1Cl [CC-144, [3-[[(4-Chlor-2,5-dimethyl-phenyl)sulfonyl]-methyl]-[1,2,4]oxadiazol-5-yl]-(4-pyridin-4-yl-piperazin-1-yl)-methanon] |
| – | 99 | Cc1cc(S(=O)(=O)Cc2noc(CC(=O)NC3CCC(N4CCCC4)CC3(C)C)n2)c(C)cc1Cl (stereo not shown) [CC-43, 2-[3-[[(4-Chlor-2,5-dimethyl-phenyl)sulfonyl]-methyl]-[1,2,4]oxadiazol-5-yl]-N-(2,2-dimethyl-4-pyrrolidin-1-yl-cyclohexyl)-acetamid] |
| – | 100 | Cc1cc(S(=O)(=O)Cc2noc(CC(=O)NC3CCC(NC4CC4)CC3(C)C)n2)c(C)cc1Cl (stereo not shown) [CC-57, 2-[3-[[(4-Chlor-2,5-dimethyl-phenyl)sulfonyl]-methyl]-[1,2,4]oxadiazol-5-yl]-N-[4-(cyclopropyl-amino)-2,2-dimethyl-cyclohexyl]-acetamid] |
| – | 100 | COc1cc(C)c(S(=O)(=O)Cc2noc(CC(=O)N3CCC4(CC3)CCN(c3ccncc3)C4)n2)c(C)c1 [CC-134, 2-[3-[[(4-Methoxy-2,6-dimethyl-phenyl)sulfonyl]-methyl]-[1,2,4]oxadiazol-5-yl]-1-(3-pyridin-4-yl-3,8-diazaspiro[4.5]decan-8-yl)-ethanon] |
| – | 100 | Cc1cc(S(=O)(=O)Cc2noc(C(=O)N3CCC4(CC3)CCN(c3ccncc3)C4)n2)c(C)cc1Cl [CC-152, [3-[[(4-Chlor-2,5-dimethyl-phenyl)sulfonyl]-methyl]-[1,2,4]oxadiazol-5-yl]-(3-pyridin-4-yl-3,8-diazaspiro[4.5]decan-8-yl)-methanon] |
| – | 99 | COc1cc(C)c(S(=O)(=O)Cc2c(C)nn(CC(=O)NC3CCC(N4CCCC4)CC3(C)C)c2C)c(C)c1 (stereo not shown) [CC-170, N-(2,2-Dimethyl-4-pyrrolidin-1-yl-cyclohexyl)-2-[4-[[(4-methoxy-2,6-dimethyl-phenyl)sulfonyl]-methyl]-3,5-dimethyl-1H-pyrazol-1-yl]-acetamid] |

From patent publication EP2857388A1, “Azoles containing sulfone” (Grünenthal GmbH, priority 2013, dated 2015)
